Tests used:
rat [1] = details: Subchronic oral toxicity in rodents, sprague dawley, Feed, dose end: 90 day, group: systemic
rat [2] = details: Developmental neurotoxicity range-finding study; sprague dawley; Oral; Feed; dose end: 22 PND; group: cannot be grouped; systemic / in life observation / clinical signs / tremors
rat [3] = details: Prenatal developmental toxicity study, sprague dawley, Oral, Feed, dose end: 20 GD
dog [4] = details: Subchronic oral toxicity in nonrodent, beagle, Capsule, dose end: 13 week
rat [5] = details: Prenatal developmental toxicity study, sprague dawley, Oral, Gavage/Intubation, dose end: 15 GD
dog [6] = details: Chronic toxicity, beagle, Oral, Capsule, dose end: 52 week, group: systemic
rat [7] = details: Combined chronic toxicity/carcinogenicity, sprague dawley, Oral, Feed, dose end: 734 day, group: systemic
mouse = details: Carcinogenicity, cd1, Oral, Feed, dose end: 87 week, group: systemic
dog [8] = details: Sub-acute repeat dose toxicity; beagle; Oral; Capsule; dose end: 28 day; group: systemic; systemic / pathology microscopic / heart / lesion(s) (nos)
rat [9] = details: Sub-acute repeat dose toxicity, sprague dawley, Oral, Feed, dose end: 28 day, group: systemic
rat [10] = details: Sub-acute repeat dose toxicity, sprague dawley, Oral, Feed, dose end: 28 day, group: systemic; remark: listed apart in the source
dog [11] = details: Chronic toxicity, beagle, Oral, Capsule, dose end: 1 year, group: systemic
rabbit [12] = details: Prenatal developmental toxicity study, new zealand white, Oral, Gavage/Intubation, dose end: 29 GD
rabbit [13] = details: Prenatal developmental toxicity study; new zealand white; Oral; Feed; dose end: 29 GD; group: developmental; developmental / developmental malformation / bone / absent + developmental / developmental malformation / bone / incomplete ossification + …
[14] = systemic / in life observation / clinical signs / tremors
[15] = group: developmental, developmental / developmental malformation / bone / unossified
[16] = group: maternal, systemic / in life observation / body weight / body weight gain + systemic / in life observation / clinical signs / hypersensitivity + …
[17] = group: maternal, reproductive / reproductive performance / estrous cycle / abnormal
[18] = group: systemic, systemic / in life observation / clinical signs / tremors + systemic / in life observation / body weight / body weight gain + systemic / in …
[19] = group: developmental, developmental / developmental malformation / ureter / hydroureter
[20] = group: maternal, systemic / in life observation / clinical signs / tremors
[21] = systemic / in life observation / clinical signs / tremors + systemic / hematology / erythrocyte (rbc) count differential / erythrocyte (rbc…
[22] = systemic / pathology microscopic / testes / degeneration
[23] = systemic / in life observation / body weight / body weight + systemic / in life observation / body weight / body weight gain + systemic / in…
[24] = systemic / in life observation / body weight / body weight gain
[25] = systemic / pathology microscopic / heart / lesion(s) (nos) + systemic / pathology microscopic / heart / fibrosis
[26] = group: developmental, developmental / developmental malformation / bone / absent + developmental / developmental malformation / bone / incomplete ossification + …
[27] = group: maternal, reproductive / reproductive performance / aborted / aborted + reproductive / reproductive performance / resorptions / resorptions + systemic…

## Cc1c(COC(=O)[C@@H]2[C@H](/C=C(\Cl)C(F)(F)F)C2(C)C)cccc1-c1ccccc1 [Bifenthrin]
Rat [1]; systemic / in life observation / body weight / body weight + systemic / in life observation / body weight / body weight gain
  NEL: 17.2 mg/kg/day
Rat [1]; [14]
  LOAEL: 7.5 mg/kg/day
Rat [1]; systemic / in life observation / clinical signs / tremors + systemic / clinical chemistry / potassium / potassium + systemic / clinical …
  NOAEL: 3.8 mg/kg/day
Rat [2]
  LEL: 9.3 mg/kg/day
  LOAEL: > 9.3 mg/kg/day
  NEL: 7.4 mg/kg/day
  NOAEL: ≥ 9.3 mg/kg/day
Rat [3]; [15]
  LEL: 16.3 mg/kg/day
  LOAEL: > 16.3 mg/kg/day
  NEL: 7.4 mg/kg/day
  NOAEL: ≥ 16.3 mg/kg/day
Rat [3]; [16]
  LEL: 16.3 mg/kg/day
  LOAEL: 16.3 mg/kg/day
  NEL: 7.4 mg/kg/day
  NOAEL: 7.4 mg/kg/day
Dog [4]; [17]
  LEL: 10 mg/kg/day
  LOAEL: > 20 mg/kg/day
  NEL: 5 mg/kg/day
  NOAEL: ≥ 20 mg/kg/day
Dog [4]; group: systemic, systemic / in life observation / clinical signs / tremors
  LOAEL: 5 mg/kg/day
Dog [4]; [18]
  NEL: 2.5 mg/kg/day
  NOAEL: 2.5 mg/kg/day
Dog [4]; group: systemic, systemic / in life observation / clinical signs / tremors + systemic / in life observation / clinical signs / ataxia
  LEL: 5 mg/kg/day
Rat [5]; [19]
  LEL: 2 mg/kg/day
  LOAEL: 2 mg/kg/day
  NEL: 1 mg/kg/day
  NOAEL: 1 mg/kg/day
Rat [5]; [20]
  LEL: 2 mg/kg/day
  LOAEL: 2 mg/kg/day
  NEL: 1 mg/kg/day
  NOAEL: 1 mg/kg/day
Dog [6]; [14]
  LOAEL: 3 mg/kg/day
Dog [6]; systemic / in life observation / clinical signs / tremors + systemic / clinical chemistry / sodium / sodium
  LEL: 3 mg/kg/day
Dog [6]; [21]
  NEL: 1.5 mg/kg/day
  NOAEL: 1.5 mg/kg/day
Rat [7]; [14]
  LOAEL: 6.1 mg/kg/day
Rat [7]; systemic / in life observation / clinical signs / tremors + systemic / in life observation / body weight / body weight + systemic / in life …
  NOAEL: 3 mg/kg/day
Rat [7]; systemic / organ weight / kidney / relative to body weight + systemic / organ weight / liver / relative to body weight
  LEL: 4.7 mg/kg/day
Rat [7]; systemic / organ weight / kidney / relative to body weight + systemic / organ weight / liver / relative to body weight + systemic / in life …
  NEL: 2.3 mg/kg/day
mouse; [14]
  LOAEL: 25.6 mg/kg/day
mouse; systemic / in life observation / clinical signs / tremors + systemic / pathology microscopic / liver / adenoma/carcinoma combined + systemic…
  NOAEL: 6.7 mg/kg/day
mouse; [22]
  LEL: 6.7 mg/kg/day
  NEL: < 6.7 mg/kg/day

## Cn1cnc2c1c(=O)[nH]c(=O)n2C [Theobromine]
Dog [8]
  LEL: 100 mg/kg/day
  LOAEL: > 150 mg/kg/day
  NEL: 75 mg/kg/day
  NOAEL: ≥ 150 mg/kg/day
Rat [9]; [23]
  LOAEL: > 912 mg/kg/day
  NOAEL: ≥ 912 mg/kg/day
Rat [9]; systemic / in life observation / body weight / body weight + systemic / in life observation / food consumption / food consumption
  LEL: 389 mg/kg/day
Rat [9]; systemic / in life observation / body weight / body weight + systemic / in life observation / food consumption / food consumption + systemic…
  NEL: 200 mg/kg/day
Rat [10]; [23]
  LOAEL: > 492 mg/kg/day
  NOAEL: ≥ 492 mg/kg/day
Rat [10]; [24]
  LEL: 94 mg/kg/day
  NEL: < 94 mg/kg/day
Dog [11]; systemic / pathology microscopic / heart / lesion(s) (nos)
  LEL: 100 mg/kg/day
Dog [11]; [25]
  LOAEL: > 150 mg/kg/day
  NOAEL: ≥ 150 mg/kg/day
Rabbit [12]; group: developmental, developmental / developmental malformation / bone / absent + developmental / developmental malformation / bone / incomplete ossification
  LEL: 75 mg/kg/day
Rabbit [12]; [26]
  LOAEL: > 200 mg/kg/day
  NEL: 25 mg/kg/day
  NOAEL: ≥ 200 mg/kg/day
Rabbit [12]; [27]
  LOAEL: > 200 mg/kg/day
  NEL: 25 mg/kg/day
  NOAEL: ≥ 200 mg/kg/day
Rabbit [12]; group: maternal, reproductive / reproductive performance / resorptions / resorptions + reproductive / offspring survival early / dead fetuses / dead fetuses
  LEL: 75 mg/kg/day
Rabbit [13]
  LEL: 41 mg/kg/day
  LOAEL: > 63 mg/kg/day
  NEL: 21 mg/kg/day
  NOAEL: ≥ 63 mg/kg/day
